From publication doi:10.1101/2024.06.03.597093v3 (biorxiv, 2024)
Read-outs that look alike come from different tables or passages of the source.

Tests used:
β2AR-NlucC (CRISPR) = β2AR-NlucC (CRISPR) (Homo sapiens, UniProt P07550); assay: cell-based; details: HEK-293T, read-out: CRISPR_receptor Emax
β2AR-NlucC (β2AR) [1] = molecular target: T1, β2AR-NlucC (β2AR) (Homo sapiens, UniProt P07550); assay: cell-based; details: HEK-293T, read-out: CRISPR_mGs Emax
β1AR-NlucC (CRISPR) = β1AR-NlucC (CRISPR) (Homo sapiens, UniProt P08588); details: CRISPR receptor; relative to adrenaline; agonist
β2AR-NlucC (β2AR) [2] = molecular target: T1, β2AR-NlucC (β2AR); assay: cell-based; details: HEK-293T, read-out: Mini-G Protein Recruitment / Emax (%) ± SEM

T1 sequence (P07550 whole entry): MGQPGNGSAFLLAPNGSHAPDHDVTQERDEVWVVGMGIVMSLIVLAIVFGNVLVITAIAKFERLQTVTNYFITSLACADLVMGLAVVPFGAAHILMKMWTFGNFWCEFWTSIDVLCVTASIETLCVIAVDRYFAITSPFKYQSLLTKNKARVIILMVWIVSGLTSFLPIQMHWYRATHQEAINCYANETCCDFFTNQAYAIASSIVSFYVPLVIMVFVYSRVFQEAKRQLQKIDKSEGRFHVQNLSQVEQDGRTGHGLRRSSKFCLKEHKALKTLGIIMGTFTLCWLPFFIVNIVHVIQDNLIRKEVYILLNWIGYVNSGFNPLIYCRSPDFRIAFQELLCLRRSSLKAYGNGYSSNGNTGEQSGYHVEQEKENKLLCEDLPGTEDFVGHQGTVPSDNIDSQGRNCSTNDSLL
Sequence of β2AR-NlucC (CRISPR) (P07550 whole entry): as above
Sequence of β1AR-NlucC (CRISPR) (P08588 whole entry): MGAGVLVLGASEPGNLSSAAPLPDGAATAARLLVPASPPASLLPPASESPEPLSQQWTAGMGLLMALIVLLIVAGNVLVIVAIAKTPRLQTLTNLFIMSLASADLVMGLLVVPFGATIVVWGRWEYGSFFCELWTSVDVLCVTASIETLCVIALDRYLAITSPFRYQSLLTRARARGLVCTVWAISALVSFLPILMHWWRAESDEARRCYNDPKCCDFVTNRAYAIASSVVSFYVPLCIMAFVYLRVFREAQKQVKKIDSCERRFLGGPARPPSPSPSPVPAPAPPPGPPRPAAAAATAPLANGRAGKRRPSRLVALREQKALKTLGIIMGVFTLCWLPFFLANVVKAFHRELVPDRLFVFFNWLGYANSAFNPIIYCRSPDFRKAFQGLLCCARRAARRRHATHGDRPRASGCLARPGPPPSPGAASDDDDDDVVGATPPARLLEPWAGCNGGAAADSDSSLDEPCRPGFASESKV

Emax (β2AR-NlucC (CRISPR)): 61 ± 7%
Emax (β2AR-NlucC (β2AR) [1]): 51 ± 4%
CRISPR_receptor Emax (β1AR-NlucC (CRISPR)): 109 ± 7%
Emax (β2AR-NlucC (β2AR) [2]): 85 ± 2%
Structure (SMILES): NC[C@H](O)c1ccc(O)c(O)c1 [noradrenaline]
